Target: T1, Anoctamin 1 (ANO1) (Homo sapiens, UniProt Q5XXA6)
T1 construct: ANO1 stably expressed in FRT cells
T1 sequence (Q5XXA6 1-986): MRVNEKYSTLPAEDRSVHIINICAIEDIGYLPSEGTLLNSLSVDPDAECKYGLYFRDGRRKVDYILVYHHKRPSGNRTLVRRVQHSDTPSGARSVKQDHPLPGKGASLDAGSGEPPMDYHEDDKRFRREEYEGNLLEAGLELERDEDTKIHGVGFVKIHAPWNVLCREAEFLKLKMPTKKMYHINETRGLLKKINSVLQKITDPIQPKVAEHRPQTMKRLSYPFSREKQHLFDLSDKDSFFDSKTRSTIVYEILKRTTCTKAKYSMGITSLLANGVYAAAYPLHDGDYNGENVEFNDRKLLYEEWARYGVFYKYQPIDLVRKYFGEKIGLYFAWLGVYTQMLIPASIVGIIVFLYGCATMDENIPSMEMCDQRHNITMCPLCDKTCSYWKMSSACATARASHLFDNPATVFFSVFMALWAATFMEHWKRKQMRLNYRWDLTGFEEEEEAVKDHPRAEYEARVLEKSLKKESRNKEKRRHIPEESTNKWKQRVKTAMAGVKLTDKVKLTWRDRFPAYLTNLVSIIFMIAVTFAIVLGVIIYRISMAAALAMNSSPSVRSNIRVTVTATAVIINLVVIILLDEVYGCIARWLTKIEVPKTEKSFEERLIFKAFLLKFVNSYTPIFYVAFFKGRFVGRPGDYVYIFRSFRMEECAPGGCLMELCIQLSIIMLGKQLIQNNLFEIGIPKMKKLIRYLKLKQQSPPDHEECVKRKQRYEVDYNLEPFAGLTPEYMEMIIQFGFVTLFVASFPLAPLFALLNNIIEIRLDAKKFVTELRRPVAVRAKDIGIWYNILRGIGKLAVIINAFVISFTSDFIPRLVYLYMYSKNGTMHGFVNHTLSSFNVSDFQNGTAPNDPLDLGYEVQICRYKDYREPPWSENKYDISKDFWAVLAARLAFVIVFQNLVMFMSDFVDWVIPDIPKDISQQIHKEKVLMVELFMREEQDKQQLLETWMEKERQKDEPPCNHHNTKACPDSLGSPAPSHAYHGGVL
Assay: YFP fluorescence quenching (iodide influx) assay in FRT cells expressing ANO1 and YFP
Type: cell-based

**Q.** With `COc1cc(C[C@@H](C)[C@@H](C)Cc2cc(O)c(OC)c(OC)c2)cc(O)c1OC` [compound 11, schisandrathera D] as the compound, how does the IC50 read?
**A.** The IC50 was 5.24 µM.

— publication PMC10232832, “ANO1-downregulation induced by schisandrathera D: a novel therapeutic target for the treatment of prostate and oral cancers” (Frontiers in Pharmacology, 2023)
